Among the data in patent publication US20050043315A1, “Aminopyrimidine compounds, processes for their preparation and pharmaceutical compositions containing them” (priority 2002, published 2005) are melting point values, retold here.

Structures are written as SMILES.

As for `CC(C)CC(=O)Nc1ncc(-c2ccc(=O)n(C(C)C)n2)c(-c2ccccc2)n1` [Example 162, N-[5-(1-isopropyl-6-oxo-1,6-dihydro-3-pyridazinyl)-4-phenyl-2-pyrimidinyl]-3-methylbutanamide], the melting point was determined as 161 °C.

`CC(C)n1nc(-c2cnc(N)nc2-c2ccc(OCCN3CCOCC3)cc2)ccc1=O` [Example 220, 6-(2-Amino-4-{4-[2-(4-morpholinyl)ethoxy]phenyl}-5-pyrimidinyl)-2-isopropyl-3(2H)-pyridazinone] gave a melting point of 161 °C.

For `CNC(=O)COc1nc(N)nc(-c2ccccc2)c1-c1ccc(=O)n(C(C)C)n1` [Example 101, 2-{[2-amino-5-(1-isopropyl-6-oxo-1,6-dihydro-3-pyridazinyl)-6-phenyl-4-pyrimidinyl]oxy}-N-methylacetamide], the melting point fell in the range of 204 to 205.5 °C.

`COc1cccc(-c2nc(N)ncc2-c2ccc(=O)[nH]n2)c1` [Example 43, 6-[2-Amino-4-(3-methoxyphenyl)-5-pyrimidinyl)-3(2H)-pyridazinone] showed a melting point of 134 °C.

On to `CC(C)n1nc(-c2c(OCc3ccccc3)nc(N)nc2-c2ccccc2)ccc1=O` [Example 93, 6-[2-amino-4-(benzyloxy)-6-phenyl-5-pyrimidinyl]-2-isopropyl-3(2H)-pyridazinone], for which the melting point lay in the range of 162 to 163 °C.

`CC(C)n1nc(-c2c(NC3CC3)nc(N)nc2-c2ccccc2)ccc1=O` [Example 112, 6-[2-Amino-4-(cyclopropylamino)-6-phenyl-5-pyrimidinyl]-2-isopropyl-3(2H)-pyridazinone] had a melting point of 237 to 239 °C.

As to `COc1cccc(OC)c1-c1nc(N)ncc1-c1ccc(=O)n(C(C)C)n1` [Example 243, 6-[2-Amino-4-(2,6-dimethoxyphenyl)-5-pyrimidinyl]-2-isopropyl-3(2H)-pyridazinone], the melting point worked out at 260 °C.

For `Cn1nc(-c2cnc(N)nc2-c2ccc(Cl)c(Cl)c2)ccc1=O` [Example 68, 6-[2-Amino-4-(3,4-dichlorophenyl)-5-pyrimidinyl]-2-methyl-3(2H)-pyridazinone], the melting point turned out to be 238 °C.

With `CC(C)n1nc(-c2cnc(N)nc2-c2cccc(OCCN3CCOCC3)c2)ccc1=O` [Example 222, 6-(2-Amino-4-{3-[2-(4-morpholinyl)ethoxy]phenyl}-5-pyrimidinyl)-2-isopropyl-3(2H)-pyridazinone], the melting point stood at 68 °C.

In turn, `COCC(C)n1nc(-c2cnc(N)nc2-c2ccccc2)ccc1=O` (centres unmarked) [Example 250, 6-(2-Amino-4-phenyl-5-pyrimidinyl)-2-(2-methoxy-1-methylethyl)-3(2H)-pyridazinone] displayed a melting point of 180 to 181 °C.

Consider `Cc1ccccc1-c1nc(N)ncc1-c1ccc(=O)[nH]n1` [Example 39, 6-[2-Amino-4-(2-methylphenyl)-5-pyrimidinyl]-3(2H)-pyridazinone], for which the melting point is 313 °C.

In turn, `CC(C)n1nc(-c2cnc(NC(=O)c3ccc(C(F)(F)F)cc3)nc2-c2ccccc2)ccc1=O` [Example 174, N-[5-(1-isopropyl-6-oxo-1,6-dihydro-3-pyridazinyl)-4-phenyl-2-pyrimidinyl]-4-(trifluoromethyl)benzamide] had a melting point of 160 to 163 °C.

Turning to `CCCCOc1ccccc1-c1nc(N)ncc1-c1ccc(=O)n(C(C)C)n1` [Example 198, 6-[2-Amino-4-(2-butoxyphenyl)-5-pyrimidinyl]-2-isopropyl-3(2H)-pyridazinone], the melting point amounted to 149 °C.

With `COc1nc(N)nc(-c2ccc([S+](C)[O-])cc2)c1-c1ccc(=O)n(C(C)C)n1` (centres unmarked) [Example 153, 6-{2-Amino-4-methoxy-6-[4-(methylsulfinyl)phenyl]-5-pyrimidinyl}-2-isopropyl-3(2H)-pyridazinone], the melting point lay within 127 to 130 °C.

In the case of `CC(C)n1nc(-c2cnc(NC(=O)C3CC3)nc2-c2ccccc2)ccc1=O` [Example 167, N-[5-(1-isopropyl-6-oxo-1,6-dihydro-3-pyridazinyl)-4-phenyl-2-pyrimidinyl]cyclopropanecarboxamide], the melting point lay within 143 to 147 °C.

On to `CC(C)n1nc(-c2c(-c3ccccc3)nc(N)nc2-n2cnc3ccccc32)ccc1=O` [Example 132, 6-[2-Amino-4-(1H-benzimidazol-1-yl)-6-phenyl-5-pyrimidinyl]-2-isopropyl-3(2H)-pyridazinone], for which the melting point fell in the range of 242 to 244 °C.

For the molecule `CC(C)n1nc(-c2cnc(N)nc2-c2c(F)cccc2F)ccc1=O` [Example 237, 6-[2-Amino-4-(2,6-difluorophenyl)-5-pyrimidinyl]-2-isopropyl-3(2H)-pyridazinone], the melting point stood at 244 °C.

The molecule `CC(C)n1nc(-c2cnc(N)nc2-c2ccc(C(F)(F)F)cc2)ccc1=O` [Example 26, 6-{2-Amino-4-[4-(trifluoromethyl)phenyl]-5-pyrimidinyl}-2-isopropyl-3(2H)-pyridazinone] returned a melting point of 209 to 210.5 °C.

In turn, `CC(C)n1nc(-c2c(OCC(=O)NC3CC3)nc(N)nc2-c2ccccc2)ccc1=O` [Example 103, 2-{[2-Amino-5-(1-isopropyl-6-oxo-1,6-dihydro-3-pyridazinyl)-6-phenyl-4-pyrimidinyl]oxy}-N-cyclopropylacetamide] registered a melting point of 87 to 92 °C.

`CNc1nc(N)nc(-c2ccccc2)c1-c1ccc(=O)n(C(C)C)n1` [Example 106, 6-[2-Amino-4-(methylamino)-6-phenyl-5-pyrimidinyl]-2-isopropyl-3(2H)-pyridazinone] registered a melting point of 268 to 270 °C.

`CC(C)n1nc(-c2cnc(N)nc2-c2cccc(O)c2)ccc1=O` (hydrate or solvate) [Example 187, 6-[2-Amino-4-(3-hydroxyphenyl)-5-pyrimidinyl]-2-isopropyl-3(2H)-pyridazinone]: the melting point was determined as 204 °C.

As to `CC(C)n1nc(-c2cnc(N)nc2-c2cccc(Br)c2)ccc1=O` [Example 236, 6-[2-Amino-4-(3-bromophenyl)-5-pyrimidinyl]-2-isopropyl-3(2H)-pyridazinone], the melting point fell in the range of 238 to 240 °C.

For `Cn1nc(-c2cnc(N)nc2-c2ccc(O)cc2)ccc1=O` (hydrate or solvate) [Example 223, 6-[2-Amino-4-(4-hydroxyphenyl)-5-pyrimidinyl)-2-methyl-3(2H)-pyridazinone], the melting point stood at 250 °C.

In turn, `CSc1nc(N)nc(-c2ccccc2)c1-c1ccc(=O)n(C)n1` [Example 142, 6-[2-Amino-4-(methylthio)-6-phenyl-5-pyrimidinyl]-2-methyl-3(2H)-pyridazinone] displayed a melting point of 233 to 235 °C.

On to `CC(C)n1nc(-c2c(-c3ccccc3)nc(N)nc2N(C)C)ccc1=O` [Example 107, 6-[2-Amino-4-(dimethylamino)-6-phenyl-5-pyrimidinyl]-2-isopropyl-3(2H)-pyridazinone], for which the melting point is 293 to 296 °C.

`Nc1ncc(-c2ccc(=O)[nH]n2)c(-c2ccc(Cl)c(Cl)c2)n1` [Example 38, 6-[2-Amino-4-(3,4-dichlorophenyl)-5-pyrimidinyl]-3(2H)-pyridazinone] displayed a melting point of 300 °C.

The molecule `COc1ccc(-c2nc(N)ncc2-c2ccc(=O)[nH]n2)cc1` [Example 27, 6-[2-amino-4-(4-methoxyphenyl)-5-pyrimidinyl]-3(2H)-pyridazinone] displayed a melting point of 142 °C.

Turning to `COc1ccc(-c2nc(N(C)C)ncc2-c2ccc(=O)n(C)n2)cc1F` [Example 249, 6-[2-(Dimethylamino)-4-(3-fluoro-4-methoxyphenyl)-5-pyrimidinyl]-2-methyl-3(2H)-pyridazinone], the melting point was 158 °C.

As for `CC(C)Nc1nc(N)nc(-c2ccccc2)c1-c1ccc(=O)n(C(C)C)n1` [Example 110, 6-[2-Amino-4-(isopropylamino)-6-phenyl-5-pyrimidinyl]-2-isopropyl-3(2H)-pyridazinone], the melting point is 234 to 236 °C.

Consider `CC(C)n1nc(-c2cnc(N)nc2-c2ccc(F)cc2)ccc1=O` [Example 13, 6-[2-amino-4-(4-fluorophenyl)-5-pyrimidinyl]-2-isopropyl-3(2H)-pyridazinone], for which the melting point lay within 238 to 239 °C.

In the case of `CC(C)n1nc(-c2c(-c3ccccc3)nc(N)nc2-n2ccnc2)ccc1=O` [Example 130, 6-[2-amino-4-(1H-imidazol-1-yl)-6-phenyl-5-pyrimidinyl]-2-isopropyl-3(2H)-pyridazinone], the melting point is 255 to 258 °C.

As for `CC(C)n1nc(-c2c(Nc3ccccc3)nc(N)nc2-c2ccccc2)ccc1=O` [Example 133, 6-(2-amino-4-anilino-6-phenyl-5-pyrimidinyl)-2-isopropyl-3(2H)-pyridazinone], the melting point was 240 to 242 °C.

`CC(CO)n1nc(-c2cnc(N)nc2-c2ccccc2)ccc1=O` (centres unmarked) [Example 251, 6-(2-amino-4-phenyl-5-pyrimidinyl)-2-(2-hydroxy-1-methylethyl)-3(2H)-pyridazinone] gave a melting point of 222 to 223 °C.

In turn, `CC(C)n1nc(-c2cnc(N)nc2-c2ccncc2)ccc1=O` [Example 53, 6-[2-Amino-4-(4-pyridinyl)-5-pyrimidinyl]-2-isopropyl-3(2H)-pyridazinone] displayed a melting point of 219 °C.

`CC(C)n1nc(-c2cnc(NC(=O)C3CCCCC3)nc2-c2ccccc2)ccc1=O` [Example 165, N-[5-(1-isopropyl-6-oxo-1,6-dihydro-3-pyridazinyl)-4-phenyl-2-pyrimidinyl]cyclohexanecarboxamide] displayed a melting point of 195 to 198 °C.

As to `CCCNc1nc(N)nc(-c2ccccc2)c1-c1ccc(=O)n(C(C)C)n1` [Example 109, 6-[2-Amino-4-phenyl-6-(propylamino)-5-pyrimidinyl]-2-isopropyl-3(2H)-pyridazinone], the melting point lay within 209 to 212 °C.

Molecule `CC(C)n1nc(-c2cnc(Nc3ccccc3)nc2-c2ccccc2)ccc1=O` [Example 19, 6-(2-Anilino-4-phenyl-5-pyrimidinyl)-2-isopropyl-3(2H)-pyridazinone] registered a melting point of 200 to 202 °C.

In turn, `CC(C)n1nc(-c2c(-c3ccccc3)nc(N)nc2-n2cncn2)ccc1=O` [Example 131, 6-[2-Amino-4-phenyl-6-(1H-1,2,4-triazol-1-yl)-5-pyrimidinyl]-2-isopropyl-3(2H)-pyridazinone] yielded a melting point of 266 to 268 °C.

In general, melting point refers to the temperature, or range, at which the solid turns liquid.
